Assays:
[1] = biological target: T1, human Y5 receptor (hNPY-5) (Homo sapiens, UniProt Q15761); test: Radioligand binding to membranes, cloned human Y5 receptor; conditions: cloned human NPY Y5 receptor, radioligand competition binding; Tables 1-3; read-out: Ki, nM hNPY-5
T1 construct: expressed in transfected cells; host or cells: mouse fibroblast LM(tk-) cells, e.g. L-hY5-7 (ATCC CRL-11995)
T1 sequence (Q15761 1-445): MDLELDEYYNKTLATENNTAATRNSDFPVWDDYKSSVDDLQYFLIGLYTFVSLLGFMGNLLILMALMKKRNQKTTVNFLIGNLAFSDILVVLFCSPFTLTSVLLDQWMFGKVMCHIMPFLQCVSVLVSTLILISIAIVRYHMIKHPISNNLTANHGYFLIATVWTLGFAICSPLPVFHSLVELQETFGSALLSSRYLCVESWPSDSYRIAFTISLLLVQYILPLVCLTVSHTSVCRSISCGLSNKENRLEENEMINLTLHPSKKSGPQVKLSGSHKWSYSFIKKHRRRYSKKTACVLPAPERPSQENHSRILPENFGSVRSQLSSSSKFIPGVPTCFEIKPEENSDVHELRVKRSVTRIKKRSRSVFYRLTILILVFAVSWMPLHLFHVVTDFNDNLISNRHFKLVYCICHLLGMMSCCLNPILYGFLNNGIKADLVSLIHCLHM
Description: (§1) Binding of the compounds of the present invention to human Y1, Y2, Y4, and Y5 receptors was evaluated using stably transfected 293 or LM(tk-) cells as described above. Stably transfected cell lines which may be used for binding assays include, for example, for the human Y1 receptor, 293-hY1-5 (deposited Jun. 4, 1996, under ATCC Accession No. CRL-12121), for the human Y2 receptor, 293-hY2-10 (deposited Jan. 27, 1994, under ATCC Accession No. CRL-11537), for the human Y4 receptor, L-hY4-3 (deposited Jan. 11, 1995, under ATCC Accession No. CRL-11779), and for human Y5 receptor, L-hY5-7 (deposited Nov. 15, 1995, under ATCC Accession No. CRL-11995). These cell lines were deposited with the American Type Culture Collection (ATCC), 10801 University Blvd., Manassas, Va. 20110-2209, U.S.A. under the provisions of the Budapest Treaty for the International Recognition of the Deposit of Microorganisms for the Purposes of Patent Procedure.
(§2) Membranes were harvested from COS-7 cells 48 hours after transient transfection. Adherent cells were washed twice in ice-cold phosphate buffered saline (138 mM NaCl, 8.1 mM Na2HPO4, 2.5 mM KCl, 1.2 mM KH2PO4, 0.9 mM CaCl2, 0.5 mM MgCl2, pH 7.4) and lysed by sonication in ice-cold sonication buffer (20 mM Tris-HCl, 5 mM EDTA, pH 7.7). Large particles and debris were cleared by low speed centrifugation (200×g, 5 min, 4° C.). Membranes were collected from the supernatant fraction by centrifugation (32,000×g, 18 min, 4° C.), washed with ice-cold hypotonic buffer, and collected again by centrifugation (32,000×g, 18 min, 4° C.). The final membrane pellet was resuspended by sonication into a small volume of ice-cold binding buffer (˜1 ml for every 5 plates: 10 mM NaCl, 20 mM HEPES, 0.22 mM KH2PO4, 1.26 mM CaCl2, 0.81 mM MgSO4, pH 7.4). Protein concentration was measured by the Bradford method (Bradford, 1976) using Bio-Rad Reagent, with bovine serum albumin as a standard. Membranes were held on ice for up to one hour and used fresh, or flash-frozen and stored in liquid nitrogen.
(§3) Membranes were prepared similarly from 293, LM(tk-), and NIH-3T3 cells. To prepare membranes from baculovirus infected cells, 2×10^7 Sf21 cells were grown in 150 mm tissue culture dishes and infected with a high-titer stock of hY5BB3. Cells were incubated for 2-4 days at 27° C., no CO2 before harvesting and membrane preparation as described above.
(§4) Membrane suspensions were diluted in binding buffer supplemented with 0.1% bovine serum albumin to yield an optimal membrane protein concentration so that ^125I-PYY (or alternative radioligand such as ^125I-NPY, ^125I-PYY3-36, or ^125I-[Leu^31Pro^34]PYY) bound by membranes in the assay was less than 10% of ^125I-PYY (or alternative radioligand) delivered to the sample (100,000 dpm/sample=0.08 nM for competition binding assays). ^125I-PYY (or alternative radioligand) and peptide competitors were also diluted to desired concentrations in supplemented binding buffer. Individual samples were then prepared in 96-well polypropylene microtiter plates by mixing 125I-PYY (25 μL) (or alternative radioligand), competing peptides or supplemented binding buffer (25 μL), and finally, membrane suspensions (200 μL). Samples were incubated in a 30° C. water bath with constant shaking for 120 min. Incubations were terminated by filtration over Whatman GF/C filters (pre-coated with 1% polyethyleneimine and air-dried before use), followed by washing with 5 mL of ice-cold binding buffer. Filter-trapped membranes were impregnated with MeltiLex solid scintillant (Wallac, Turku, Finland) and counted for ^125I in a Wallac Beta-Plate Reader. Alternatively, incubations were carried out in GF/C filter plates (pre-coated with 1% polyethyleneimine and air-dried before use), followed by vacuum filtration and three washes of 300 μL of ice-cold binding buffer. 50 μL of UltimaGold (Packard) scintillant were added and counted for ^125I in a Wallac MicroBeta Trilux. […]

[2] = biological target: hNPY-1,2,4 (human Y1, Y2, Y4 receptors); test: Radioligand binding to membranes, cloned human Y1, Y2 and Y4 receptors; conditions: one bound given for all three
Description: as §1, §2, §3, §4

| Structure (SMILES) | Ki [1] [nM] | Ki [2] [nM] | melting point [°C] |
| --- | --- | --- | --- |
| CS(=O)(=O)NCCCCNc1nc2c(s1)CCCc1ccc(F)cc1-2 [Example 5, 1-Aza-9-fluoro-4,5-dihydro-2-(4-(methane-sulfonylamino)-butyl)amino-3-thia-benzo[e]azulene] | 19.8 | > 10000 | – |
| O=S(=O)(NCCCCNc1nc2c(s1)CCCc1ccc(F)cc1-2)c1ccccc1F [Example 7, 1-Aza-9-fluoro-2-(4-(2-fluorophenyl)sulfonylamino)-butylamino-4,5-dihydro-3-thia-benzo[e]azulene] | 23 | > 10000 | – |
| CS(=O)(=O)NCCCCCNc1nc2c(s1)CCCc1ccc(F)cc1-2 [Example 10, 1-Aza-9-fluoro-4,5-dihydro-2-(5-(methylsulfonyl-amino)-pentyl)amino-3-thia-benzo [e]azulene] | 2.4 | > 10000 | – |
| O=S(=O)(NCCCCCNc1nc2c(s1)CCCc1ccc(F)cc1-2)c1ccc(F)cc1F [Example 12, 1-Aza-9-fluoro-4,5-dihydro-2-(5-(2,4-difluoro-phenyl)sulfonylamino)pentylamino-3-thia-benzo[e]-azulene] | 6.1 | > 1000 | – |
| CCN(CC)S(=O)(=O)NCCCCCNc1nc2c(s1)CCCc1ccc(F)cc1-2 [Example 14, 1-Aza-9-fluoro-4,5-dihydro-2-(5-(diethyl-aminosulfonyl-amino)pentyl)amino-3-thia-benzo[e]-azulene] | 2.1 | > 10000 | – |
| O=S(=O)(Cc1ccccc1)NCCCCCNc1nc2c(s1)CCCc1ccc(F)cc1-2 [Example 16, 1-Aza-2-(5-benzylsulfonylamino)pentylamino-9-fluoro-4,5-dihydro-3-thia-benzo[e]azulene] | 4.7 | > 10000 | – |
| O=S(=O)(NCCCCCNc1nc2c(s1)CCCc1ccc(F)cc1-2)c1ccc(F)c(F)c1 [Example 17, 1-Aza-2-(5-(3,4-difluorophenyl)sulfonylamino)-pentylamino-9-fluoro-4,5-dihydro-3-thia-benzo[e]-azulene] | 11 | > 10000 | – |
| COc1ccc(S(=O)(=O)NCCCCCNc2nc3c(s2)CCCc2ccc(F)cc2-3)cc1 [Example 18, 1-Aza-9-fluoro-4,5-dihydro-2-(5-(4-methoxyphenyl)-sulfonylamino)pentylamino-3-thia-benzo[e]azulene] | 7.1 | > 10000 | – |
| CCS(=O)(=O)NCCCCCNc1nc2c(s1)CCCc1ccc(F)cc1-2 [Example 21, 1-Aza-9-fluoro-2-(5-ethylsulfonylamino)pentylamino-4,5-dihydro-3-thia-benzo[e]azulene] | 2.5 | > 10000 | – |
| CCN(CC)S(=O)(=O)NCCCCNc1nc2c(s1)CCCc1ccc(F)cc1-2 [Example 22, 1-Aza-2-(4-diethylaminosulfonylamino)butylamino-9-fluoro-4,5-dihydro-3-thia-benzo[e]azulene] | 2.9 | > 10000 | – |
| Cc1noc(C)c1S(=O)(=O)NCCCCCNc1nc2c(s1)CCCc1ccc(F)cc1-2 [Example 24, 1-Aza-9-fluoro-4,5-dihydro-2-(5-(3,5-dimethyl-isoxazol-4-yl)sulfonylamino)pentylamino-3-thia-benzo[e]azulene] | 3.5 | > 10000 | – |
| COc1ccc(C)cc1S(=O)(=O)NCCCCC(=O)Nc1nc2c(s1)CCCc1ccc(F)cc1-2 [Example 49, N1-(9-Fluoro-5,6-dihydro-4H-benzo[6,7]cyclohepta-[d][1,3]-thiazol-2-yl)-5-[(2-methoxy-5-methylphenyl)-sulfonyl]-aminopentanamide] | 2.9 | – | 70 to 75 |
| COc1ccc(C)cc1S(=O)(=O)N[C@H]1CC[C@H](CNc2nc3c(s2)CCOc2ccccc2-3)CC1 [Example 51, trans-1-Aza-4,5-dihydro-2-{4-(2-methoxy-5-methyl-phenyl)-sulfonylamino}cyclohexylmethylamino-6-oxa-3-thia-benzo[e]azulene] | 8.3 | – | 220 to 224 |
| CS(=O)(=O)NCCOCCNc1nc2c(s1)CCCc1ccc(F)cc1-2 [Example 57, 1-Aza-9-fluoro-4,5-dihydro-2-{2-(2-methylsulfonyl-amino)ethoxy}ethylamino-3-thia-benzo[e]azulene] | 66 | – | 159 to 162 |
| CCS(=O)(=O)N[C@H]1CC[C@H](CNc2nc3c(s2)CCOc2cc(OC)ccc2-3)CC1 [Example 60, trans-N2-(4-Ethylsulfonylamino)cyclohexylmethyl-8-methoxy-4,5-dihydro-benzo[2,3]oxepino[4,5-d][1,3]thiazol-2-amine] | 31 | – | 170 to 172 |
| COc1ccc2c(c1)OCCc1sc(NC[C@H]3CC[C@H](NS(C)(=O)=O)CC3)nc1-2 [Example 61, trans-1-Aza-4,5-dihydro-8-methoxy-2-{4-methyl-sulfonyl-amino)cyclohexylmethylamino-6-oxa-3-thia-benzo [e]azulene] | 162 | – | 65 to 70 |
| O=S(=O)(N[C@H]1CC[C@H](CNc2nc3c(s2)CCCc2ccc(F)cc2-3)CC1)c1cccnc1 [Example 62, trans-1-Aza-9-fluoro-4,5-dihydro-2-{4-(3-pyridyl)sulfonylamino}cyclohexylmethylamino-3-thia-benzo[e]azulene] | 1.8 | – | 158 to 160 |
| CCS(=O)(=O)N[C@H]1CC[C@H](CNc2nc3c(s2)CCOc2ccc(OC)cc2-3)CC1 [Example 64, trans-N2-(4-Ethylsulfonylamino)cyclohexylmethyl-9-methoxy-4,5-dihydro-benzo[2,3]oxepino[4,5-d][1,3]thiazol-2-amine] | 12.2 | – | 165 to 170 |
| COc1ccc2c(c1)CCCc1sc(N[C@H]3CC[C@H](CNS(C)(=O)=O)CC3)nc1-2 [Example 72, trans-1-Aza-4,5-dihydro-8-methoxy-2-(4-methyl-sulfonylamino-methyl)cyclohexylamino-3-thia-benzo[e]azulene] | 22 | – | 224 to 225 |
| CCCN(C=O)C[C@H]1CC[C@H](Nc2nc3c(s2)CCOc2ccccc2-3)CC1 [Example 85, N-{[4-(4,5-Dihydrobenzo[2,3]oxepino[4,5-d][1,3]-thiazol-2-ylamino)cyclohexyl]methyl}-N-propylformamide] | 150 | – | 53 to 55 |
| CS(=O)(=O)NCc1ccc(Nc2nc3c(s2)CCCc2ccc(F)cc2-3)cc1 [Example 90, N-{4-[(9-Fluoro-5,6-dihydro-4H-benzo[6,7]cyclohepta-[d][1,3]thiazol-2-yl)amino]benzyl}methanesulfonamide] | 5.7 | – | 148 to 150 |

— patent US7273880B2, “Selective NPY (Y5) antagonists” (H. Lunbeck A/S, priority 1999, dated 2007)
